A short description of series [1]: CuAAC macrocyclisation of azide/terminal alkyne linear peptidomimetics to 1,4-triazole (CuI 2 eq, DIPEA 3 eq, Ar-degassed), then Boc removal (TMSCl/MeOH GP4; HCl/dioxane GP5 for A13w, J13w). Conditions: THF (reflux), 1.2 mM, 66.0 °C, 18.0 h, 2 steps.
A short description of series [2]: RuAAC macrocyclisation of azide/terminal alkyne linear peptidomimetics to 1,5-triazole ([Cp*RuCl]4 0.1 eq, Ar-degassed), then Boc removal (TMSCl/MeOH GP4 or HCl/dioxane GP5). As to conditions: toluene (reflux), 1.25 mM, 111.0 °C, 18.0 h, 2 steps.

In turn, `COC(=O)[C@@H]1CCCn2cc(nn2)CNC(=O)NCCCC[C@H](NC(=O)OC(C)(C)C)C(=O)N1` [Boc-Lys(CONH-propargyl)-Orn(N3)-OMe] showed a ring closure, yield over several steps in series [1] (from C#CCNC(=O)NCCCC[C@H](NC(=O)OC(C)(C)C)C(=O)N[C@@H](CCCN=[N+]=[N-])C(=O)OC, 18-membered ring) of 93%.
With `COC(=O)[C@@H]1CNC(=O)[C@H](Cc2ccccc2)n2cc(nn2)CCCC(=O)NCCCC[C@H](NC(=O)OC(C)(C)C)C(=O)N1` [Boc-Lys(5-hexynoyl)-Dap(N3-Phe)-OMe], the ring closure, yield over several steps in series [1] (from C#CCCCC(=O)NCCCC[C@H](NC(=O)OC(C)(C)C)C(=O)N[C@@H](CNC(=O)[C@H](Cc1ccccc1)N=[N+]=[N-])C(=O)OC, 20-membered ring) worked out at 61%.
The molecule `COC(=O)[C@@H]1CNC(=O)[C@H](Cc2ccccc2)n2cc(nn2)CCC(=O)NCCC[C@H](NC(=O)OC(C)(C)C)C(=O)N1` [Boc-Orn(4-pentynoyl)-Dap(N3-Phe)-OMe] displayed a ring closure, yield over several steps in series [1] (from C#CCCC(=O)NCCC[C@H](NC(=O)OC(C)(C)C)C(=O)N[C@@H](CNC(=O)[C@H](Cc1ccccc1)N=[N+]=[N-])C(=O)OC, 18-membered ring) of 45%.
`COC(=O)[C@@H]1CCCCNC(=O)[C@H](Cc2ccccc2)n2cc(nn2)CNC(=O)NCC[C@H](NC(=O)OC(C)(C)C)C(=O)N1` [Boc-Dab(CONH-propargyl)-Lys(N3-Phe)-OMe]: in series [1] (from C#CCNC(=O)NCC[C@H](NC(=O)OC(C)(C)C)C(=O)N[C@@H](CCCCNC(=O)[C@H](Cc1ccccc1)N=[N+]=[N-])C(=O)OC, 20-membered ring), the ring closure, yield over several steps was 80%.
With `COC(=O)[C@@H]1CNC(=O)[C@H](Cc2ccccc2)n2cc(nn2)CNC(=O)NC[C@H](NC(=O)OC(C)(C)C)C(=O)N1` [Boc-Dap(CONH-propargyl)-Dap(N3-Phe)-OMe], the ring closure, yield over several steps in series [1] (from C#CCNC(=O)NC[C@H](NC(=O)OC(C)(C)C)C(=O)N[C@@H](CNC(=O)[C@H](Cc1ccccc1)N=[N+]=[N-])C(=O)OC, 16-membered ring) worked out at 99%.
`COC(=O)[C@@H]1CNC(=O)[C@H](Cc2ccccc2)n2cc(nn2)CCCC(=O)NCCC[C@H](NC(=O)OC(C)(C)C)C(=O)N1` [Boc-Orn(5-hexynoyl)-Dap(N3-Phe)-OMe] returned a ring closure, yield over several steps in series [1] (from C#CCCCC(=O)NCCC[C@H](NC(=O)OC(C)(C)C)C(=O)N[C@@H](CNC(=O)[C@H](Cc1ccccc1)N=[N+]=[N-])C(=O)OC, 19-membered ring) of 99%.
On to `COC(=O)[C@@H]1CCCCNC(=O)[C@H](Cc2ccccc2)n2cc(nn2)CCCC(=O)NCCC[C@H](NC(=O)OC(C)(C)C)C(=O)N1` [Boc-Orn(5-hexynoyl)-Lys(N3-Phe)-OMe], for which the ring closure, yield over several steps in series [1] (from C#CCCCC(=O)NCCC[C@H](NC(=O)OC(C)(C)C)C(=O)N[C@@H](CCCCNC(=O)[C@H](Cc1ccccc1)N=[N+]=[N-])C(=O)OC, 22-membered ring) turned out to be 99%.
Molecule `COC(=O)[C@@H]1CCCCNC(=O)[C@H](Cc2ccccc2)n2nncc2CCCC(=O)NC[C@H](N)C(=O)N1` [Boc-Dap(5-hexynoyl)-Lys(N3-Phe)-OMe] registered a ring closure, yield over several steps in series [2] (from C#CCCCC(=O)NC[C@H](NC(=O)OC(C)(C)C)C(=O)N[C@@H](CCCCNC(=O)[C@H](Cc1ccccc1)N=[N+]=[N-])C(=O)OC, 19-membered ring) of 99%.
`COC(=O)[C@@H]1CNC(=O)[C@H](Cc2ccccc2)n2nncc2CCC(=O)NCC[C@H](N)C(=O)N1` [Boc-Dab(4-pentynoyl)-Dap(N3-Phe)-OMe] showed a ring closure, yield over several steps in series [2] (from C#CCCC(=O)NCC[C@H](NC(=O)OC(C)(C)C)C(=O)N[C@@H](CNC(=O)[C@H](Cc1ccccc1)N=[N+]=[N-])C(=O)OC, 16-membered ring) of 60%.
The molecule `COC(=O)[C@@H]1CNC(=O)[C@H](Cc2ccccc2)n2nncc2CCCC(=O)NC[C@H](N)C(=O)N1` [Boc-Dap(5-hexynoyl)-Dap(N3-Phe)-OMe] yielded a ring closure, yield over several steps in series [2] (from C#CCCCC(=O)NC[C@H](NC(=O)OC(C)(C)C)C(=O)N[C@@H](CNC(=O)[C@H](Cc1ccccc1)N=[N+]=[N-])C(=O)OC, 16-membered ring) of 99%.
Take `COC(=O)[C@@H]1CNC(=O)[C@H](Cc2ccccc2)n2nncc2CCC(=O)NC[C@H](N)C(=O)N1` [Boc-Dap(4-pentynoyl)-Dap(N3-Phe)-OMe]: in series [2] (from C#CCCC(=O)NC[C@H](NC(=O)OC(C)(C)C)C(=O)N[C@@H](CNC(=O)[C@H](Cc1ccccc1)N=[N+]=[N-])C(=O)OC, 15-membered ring), the ring closure, yield over several steps was determined as 89%.
In turn, `COC(=O)[C@@H]1Cc2ccc(cc2)-n2nncc2CCC(=O)NCCCC[C@H](N)C(=O)N1` [Boc-Lys(4-pentynoyl)-Phe(4-N3)-OMe] came in with a ring closure, yield over several steps in series [2] (from C#CCCC(=O)NCCCC[C@H](NC(=O)OC(C)(C)C)C(=O)N[C@@H](Cc1ccc(N=[N+]=[N-])cc1)C(=O)OC, 19-membered ring) of 68%.
`COC(=O)[C@@H]1CCCCn2nncc2CNC(=O)NCCC[C@H](N)C(=O)N1` [Boc-Orn(CONH-propargyl)-Lys(N3)-OMe] had a ring closure, yield over several steps in series [2] (from C#CCNC(=O)NCCC[C@H](NC(=O)OC(C)(C)C)C(=O)N[C@@H](CCCCN=[N+]=[N-])C(=O)OC, 17-membered ring) of 99%.
`COC(=O)[C@@H]1CCCn2nncc2CNC(=O)NCCCC[C@H](N)C(=O)N1` [Boc-Lys(CONH-propargyl)-Orn(N3)-OMe]: in series [2] (from C#CCNC(=O)NCCCC[C@H](NC(=O)OC(C)(C)C)C(=O)N[C@@H](CCCN=[N+]=[N-])C(=O)OC, 17-membered ring), the ring closure, yield over several steps was found to be 99%.
In turn, `COC(=O)[C@@H]1CCCCNC(=O)[C@H](Cc2ccccc2)n2nncc2CCC(=O)NCCC[C@H](N)C(=O)N1` [Boc-Orn(4-pentynoyl)-Lys(N3-Phe)-OMe] had a ring closure, yield over several steps in series [2] (from C#CCCC(=O)NCCC[C@H](NC(=O)OC(C)(C)C)C(=O)N[C@@H](CCCCNC(=O)[C@H](Cc1ccccc1)N=[N+]=[N-])C(=O)OC, 20-membered ring) of 97%.
On to `COC(=O)[C@@H]1CCCCn2nncc2CCC(=O)NCC[C@H](N)C(=O)N1` [Boc-Dab(4-pentynoyl)-Lys(N3)-OMe], for which, in series [2] (from C#CCCC(=O)NCC[C@H](NC(=O)OC(C)(C)C)C(=O)N[C@@H](CCCCN=[N+]=[N-])C(=O)OC, 16-membered ring), the ring closure, yield over several steps turned out to be 99%.
For `COC(=O)[C@@H]1CCCCn2nncc2CCCC(=O)NC[C@H](N)C(=O)N1` [Boc-Dap(5-hexynoyl)-Lys(N3)-OMe], in series [2] (from C#CCCCC(=O)NC[C@H](NC(=O)OC(C)(C)C)C(=O)N[C@@H](CCCCN=[N+]=[N-])C(=O)OC, 16-membered ring), the ring closure, yield over several steps amounted to 99%.
For the molecule `COC(=O)[C@@H]1CNC(=O)[C@H](Cc2ccccc2)n2nncc2CCC(=O)NCCC[C@H](N)C(=O)N1` [Boc-Orn(4-pentynoyl)-Dap(N3-Phe)-OMe], in series [2] (from C#CCCC(=O)NCCC[C@H](NC(=O)OC(C)(C)C)C(=O)N[C@@H](CNC(=O)[C@H](Cc1ccccc1)N=[N+]=[N-])C(=O)OC, 17-membered ring), the ring closure, yield over several steps was 93%.

Source of the values: PMC4441267.
